The target of data set [1] is T1, human GIP receptor (hGIPR) (Homo sapiens, UniProt P48546).
T1 sequence (P48546 22-466): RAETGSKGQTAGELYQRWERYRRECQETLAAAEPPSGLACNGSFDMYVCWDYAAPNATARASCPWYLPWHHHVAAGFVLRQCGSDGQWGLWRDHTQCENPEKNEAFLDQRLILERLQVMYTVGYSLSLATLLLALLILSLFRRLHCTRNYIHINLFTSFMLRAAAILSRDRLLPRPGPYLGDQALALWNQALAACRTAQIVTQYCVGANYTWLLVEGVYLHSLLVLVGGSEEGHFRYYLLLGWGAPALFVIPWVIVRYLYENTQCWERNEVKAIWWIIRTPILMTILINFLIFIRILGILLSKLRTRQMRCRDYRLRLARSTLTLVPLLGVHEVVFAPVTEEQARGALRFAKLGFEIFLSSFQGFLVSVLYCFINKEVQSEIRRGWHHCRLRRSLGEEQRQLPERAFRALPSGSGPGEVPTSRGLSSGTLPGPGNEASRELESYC
Briefly: In vitro cellular cAMP assay for GIP receptor efficacy (HEK-293 cell line over-expressing receptor). The data set is classed as cell-based. Particulars: EC50 hGIPR 0.1% BSA, HEK-293, 0.1% BSA. (Cyclic AMP is a second messenger, typically raised through Gs and lowered through Gi signalling.)

Data set [2] concerns the target T2, human GLP-1 receptor (hGLP-1R) (Homo sapiens, UniProt P43220). Briefly: Binding assay, displacement of [125I]GLP-1 from HEK-293 membranes over-expressing GLP-1R (SPA). Particulars: [125I]GLP-1 displacement. How it is done:
(1) Preparation of Membranes from HEK-293 Cells Over-Expressing GIPR or GLP-1R
HEK-293 cells recombinantly over-expressing GIPR or GLP-1R were grown to 50% confluency, washed with warm 1×PBS (Gibco) and detached in HEPES/EDTA-buffer (100 mM HEPES pH 7.5, 5 mM EDTA). Cells were harvested by centrifugation at 4° C. and 3000×g and the pellets were stored at −80° C. until further processing.
After thawing on ice, pellets were resuspended in HEPES/EDTA-buffer and homogenized on ice for 1 min using Ultra-Turray T25. After subsequent sonification the cell debris was removed by centrifugation at 1000×g and 4° C. Supernatants were then ultra-centrifuged at 100000×g and 4° C. under vacuum for 30 min. Pellets were resuspended in HEPES/EDTA/NaCl-buffer (20 mM HEPES, 1 mM EDTA, 150 mM NaCl; add 1 Complete Mini Protease inhibitor cocktail to 10 ml buffer) and protein content was determined via BCA-Protein assay.
(2) Measurement of Binding Activity of Test Compounds to Human GIPR or GLP-1R
(In a radioligand displacement assay an active substance lowers the binding of a labelled ligand.)

For the next data set, the target named is T3, human GIP receptor (Homo sapiens, UniProt P48546).
T3 construct: human adipocytes endogenously expressing the human GIP receptor; host or cells: human preadipocytes (Lonza) differentiated to adipocytes
T3 sequence (P48546 22-466): T1 sequence (P48546 22-466)
The experiment in a line: In vitro cellular cAMP assay for GIP receptor efficacy (human adipocytes). The data set is classed as cell-based. The note with it: for EC50: read-out: hGIPR EC50; for Emax: read-out: hGIPR Emax. In a few lines: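 Human preadipocytes expanded, then differentiated 6 days (insulin, dexamethasone, PPARγ agonist, 200 μM IBMX, L-thyroxine) before plating at 5000 cells/well. Test compound applied 30 min at room temperature; cAMP measured by HTRF after 1 h with lysis-buffer reagents, read as 665/620 nm fluorescence ratio.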

A short description of data set [3]: Solubility assessment (UHPLC-UV of supernatant, target 10 mg/ml). The data set is classed as physicochemical. Particulars: read-out: Soluble amount. Put shortly:
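Peptides at 10 mg/ml (purity-corrected) in 100 mM phosphate pH 7.4, optionally with 2.7 mg/ml m-cresol; gentle agitation 1 h, then 5° C. overnight (24 h). Supernatant after 15 min centrifugation at 2500 RCF quantified by UHPLC-UV, with sequence-based extinction coefficients.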

Data set [4] deals with T2, human GLP-1 receptor (hGLP-1R). Briefly: In vitro cellular cAMP assay for GLP-1 receptor efficacy (HEK-293 cell line over-expressing receptor). Particulars: HEK-293, 0.1% BSA. The data set is classed as cell-based.
Data set [5] deals with T1, human GIP receptor (hGIPR). The experiment in a line: Binding assay, displacement of [125I]GIP from HEK-293 membranes over-expressing GIPR (SPA). The note with it: [125I]GIP displacement. Put shortly: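 Membranes from HEK-293 cells over-expressing human GIPR or GLP-1R, isolated by homogenising, sonicating and ultracentrifuging at 100000×g into HEPES/EDTA/NaCl buffer with protease inhibitors, were used for binding.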

Setting [6] is: 100 mM phosphate buffer pH 7.4 (solubility buffer system A), pH 7.4, Solubility buffer system A: 100 mM phosphate buffer pH 7.4.
Setting [7] is: pH 7.4, Solubility buffer system C: 100 mM phosphate buffer pH 7.4, 2.7 mg/ml m-cresol.

Results on four compounds are retold here after US20240360194A1, “New Peptides as Potent and Selective GIP Receptor Agonists” (Sanofi, priority 2021, published 2024).

Usually EC50 stands for the concentration that produces a half-maximal response. A word on the IC50: it is the concentration needed to halve the response being measured. One may read the Emax as the greatest response seen or fitted, relative to the assay's reference.

SMILES strings stand for the structures. ≈ marks a conversion by molar mass, not a printed value. Read-outs that look alike come from different tables or passages of the source.

T2 sequence (P43220 24-463): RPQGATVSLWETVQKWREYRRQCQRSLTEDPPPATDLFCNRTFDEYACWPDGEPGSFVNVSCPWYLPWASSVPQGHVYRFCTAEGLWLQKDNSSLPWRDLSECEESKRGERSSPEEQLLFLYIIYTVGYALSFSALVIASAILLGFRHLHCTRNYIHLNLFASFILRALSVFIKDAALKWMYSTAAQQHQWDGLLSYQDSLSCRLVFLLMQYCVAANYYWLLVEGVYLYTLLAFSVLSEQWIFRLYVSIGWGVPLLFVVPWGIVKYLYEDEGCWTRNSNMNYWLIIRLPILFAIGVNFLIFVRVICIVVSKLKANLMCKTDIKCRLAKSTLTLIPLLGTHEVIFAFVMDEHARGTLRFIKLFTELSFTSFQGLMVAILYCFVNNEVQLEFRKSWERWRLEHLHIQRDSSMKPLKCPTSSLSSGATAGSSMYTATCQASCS

Turning to `CC[C@H](C)[C@H](NC(=O)[C@H](Cc1ccccc1)NC(=O)[C@H](CCC(=O)O)NC(=O)[C@H](CCC(=O)O)NC(=O)[C@H](CCC(N)=O)NC(=O)[C@H](Cc1c[nH]cn1)NC(=O)[C@@H](NC(=O)[C@H](CCCNC(=N)N)NC(=O)[C@H](CC(=O)O)NC(=O)[C@H](CCCCNC(=O)COCCOCCNC(=O)COCCOCCNC(=O)CC[C@H](NC(=O)CCCCCCCCCCCCCCCCCCC(=O)O)C(=O)O)NC(=O)C(C)(C)NC(=O)[C@@H](NC(=O)[C@H](CO)NC(=O)[C@H](CC(C)C)NC(=O)[C@H](CC(=O)O)NC(=O)[C@H](CO)NC(=O)[C@@H](NC(=O)[C@H](Cc1ccccc1)NC(=O)[C@@H](NC(=O)CNC(=O)[C@H](CCC(=O)O)NC(=O)C(C)(C)NC(=O)[C@@H](N)Cc1ccc(O)cc1)[C@@H](C)O)[C@@H](C)CC)[C@@H](C)CC)[C@@H](C)CC)C(=O)N[C@@H](CCC(=O)O)C(=O)N[C@@H](Cc1c[nH]c2ccccc12)C(=O)N[C@@H](CC(C)C)C(=O)N[C@@H](CC(C)C)C(=O)N[C@@H](C)C(=O)N[C@@H](CCC(N)=O)C(=O)N[C@@H](CCCNC(=N)N)C(=O)NCC(N)=O` [SEQ ID NO: 5, H2N-Y-Aib-E-G-T-F-I-S-D-L-S-I-Aib-K[{AEEA}2-gGlu-C20OH]-D-R-I-H-Q-E-E-F-I-E-W-L-L-A-Q-R-G-NH2], the EC50 in data set [1] is 0.0518 nM; on human GIP receptor, 2.1 nM; in data set [4] it was above 10 nM. Also, the figures for the IC50 in data set [2] and in data set [5] were 236 nM and 0.7 nM, respectively. For the same compound, the Emax at human GIP receptor stood at 114%. Besides, in data set [3] (setting [6]), the solubility at 24 h is 5200 µg/mL (≈ 1180 µM).
`CC[C@H](C)[C@H](NC(=O)[C@H](CCCNC(=N)N)NC(=O)[C@H](CC(=O)O)NC(=O)[C@H](CCCCNC(=O)COCCOCCNC(=O)COCCOCCNC(=O)CC[C@H](NC(=O)CCCCCCCCCCCCCCCCCCC(=O)O)C(=O)O)NC(=O)C(C)(C)NC(=O)[C@@H](NC(=O)[C@H](CO)NC(=O)[C@H](CC(C)C)NC(=O)[C@H](CC(=O)O)NC(=O)[C@H](CO)NC(=O)[C@@H](NC(=O)[C@H](Cc1ccccc1)NC(=O)[C@@H](NC(=O)CNC(=O)[C@H](CCC(=O)O)NC(=O)C(C)(C)NC(=O)[C@@H](N)Cc1ccc(O)cc1)[C@@H](C)O)[C@@H](C)CC)[C@@H](C)CC)C(=O)N[C@@H](Cc1c[nH]cn1)C(=O)N[C@@H](CCC(N)=O)C(=O)NC(C)(C)C(=O)N[C@@H](CCC(=O)O)C(=O)N[C@@H](Cc1ccccc1)C(=O)N[C@H](C(=O)N[C@@H](CCC(=O)O)C(=O)N[C@@H](Cc1c[nH]c2ccccc12)C(=O)N[C@@H](CC(C)C)C(=O)N[C@@H](CC(C)C)C(=O)N[C@@H](C)C(=O)N[C@@H](CCC(N)=O)C(=O)N[C@@H](CCCNC(=N)N)C(=O)NCC(N)=O)[C@@H](C)CC` [SEQ ID NO: 11, H2N-Y-Aib-E-G-T-F-I-S-D-L-S-I-Aib-K[{AEEA}2-gGlu-C20OH]-D-R-I-H-Q-Aib-E-F-I-E-W-L-L-A-Q-R-G-NH2]: the concentration giving a half-maximal response (EC50) in data set [1] is 0.0192 nM; on human GIP receptor, 1.3 nM; in data set [4] it was above 10 nM. Moreover, the IC50 in data set [2] is 97 nM; in data set [5], 0.2 nM. Moreover, the Emax on human GIP receptor stood at 113%. Moreover, the solubility at 24 h in data set [3] (setting [6]) came out at 10700 µg/mL (≈ 2450 µM).
Take `CC[C@H](C)[C@H](NC(=O)[C@H](CCCNC(=N)N)NC(=O)[C@H](CC(=O)O)NC(=O)[C@H](CCCCNC(=O)COCCOCCNC(=O)COCCOCCNC(=O)CC[C@H](NC(=O)CC[C@H](NC(=O)CCCCCCCCCCCCCCCCC(=O)O)C(=O)O)C(=O)O)NC(=O)C(C)(C)NC(=O)[C@@H](NC(=O)[C@H](CO)NC(=O)[C@H](CC(C)C)NC(=O)[C@H](CC(=O)O)NC(=O)[C@H](CO)NC(=O)[C@@H](NC(=O)[C@H](Cc1ccccc1)NC(=O)[C@@H](NC(=O)CNC(=O)[C@H](CCC(=O)O)NC(=O)C(C)(C)NC(=O)[C@@H](N)Cc1ccc(O)cc1)[C@@H](C)O)[C@@H](C)CC)[C@@H](C)CC)C(=O)N[C@@H](Cc1c[nH]cn1)C(=O)N[C@@H](CCC(N)=O)C(=O)NC(C)(C)C(=O)N[C@@H](CCC(=O)O)C(=O)N[C@@H](Cc1ccccc1)C(=O)N[C@H](C(=O)N[C@@H](CCC(=O)O)C(=O)N[C@@H](Cc1c[nH]c2ccccc12)C(=O)N[C@@H](CC(C)C)C(=O)N[C@@H](CC(C)C)C(=O)N[C@@H](C)C(=O)N[C@@H](CCC(N)=O)C(=O)N[C@@H](CCCNC(=N)N)C(=O)NCC(N)=O)[C@@H](C)CC` [SEQ ID NO: 9, H2N-Y-Aib-E-G-T-F-I-S-D-L-S-I-Aib-K[{AEEA}2-{gGlu}2-C18OH]-D-R-I-H-Q-Aib-E-F-I-E-W-L-L-A-Q-R-G-NH2]: the figures for the EC50 (in data set [1]; at human GIP receptor; in data set [4]) were 0.00917 nM, 0.8 nM and above 10 nM, respectively. Further, the results for the IC50 in data set [2] and in data set [5] were 224 nM and 0.6 nM, respectively. Besides, the maximal response (Emax) on human GIP receptor was found to be 108%. Further, the solubility at 24 h in data set [3] (setting [6]) is above 10200 µg/mL; in data set [3] (setting [7]) it was 7700 µg/mL (≈ 1720 µM).
With `CC[C@H](C)[C@H](NC(=O)[C@H](CCCNC(=N)N)NC(=O)[C@H](CC(=O)O)NC(=O)[C@H](CCCCNC(=O)COCCOCCNC(=O)COCCOCCNC(=O)CC[C@H](NC(=O)CC[C@H](NC(=O)CCCCCCCCCCCCCCCCCCC(=O)O)C(=O)O)C(=O)O)NC(=O)C(C)(C)NC(=O)[C@@H](NC(=O)[C@H](CO)NC(=O)[C@H](CC(C)C)NC(=O)[C@H](CC(=O)O)NC(=O)[C@H](CO)NC(=O)[C@@H](NC(=O)[C@H](Cc1ccccc1)NC(=O)[C@@H](NC(=O)CNC(=O)[C@H](CCC(=O)O)NC(=O)C(C)(C)NC(=O)[C@@H](N)Cc1ccc(O)cc1)[C@@H](C)O)[C@@H](C)CC)[C@@H](C)CC)C(=O)N[C@@H](Cc1c[nH]cn1)C(=O)N[C@@H](CCC(N)=O)C(=O)NC(C)(C)C(=O)N[C@@H](CCC(=O)O)C(=O)N[C@@H](Cc1ccccc1)C(=O)N[C@H](C(=O)N[C@@H](CCC(=O)O)C(=O)N[C@@H](Cc1c[nH]c2ccccc12)C(=O)N[C@@H](CC(C)C)C(=O)N[C@@H](CC(C)C)C(=O)N[C@@H](C)C(=O)N[C@@H](CCC(N)=O)C(=O)N[C@@H](CCCNC(=N)N)C(=O)NCC(N)=O)[C@@H](C)CC` [SEQ ID NO: 10, H2N-Y-Aib-E-G-T-F-I-S-D-L-S-I-Aib-K[{AEEA}2-{gGlu}2-C20OH]-D-R-I-H-Q-Aib-E-F-I-E-W-L-L-A-Q-R-G-NH2], the EC50 in data set [1] was 0.0222 nM; at human GIP receptor it was 1.2 nM; in data set [4], above 10 nM. Moreover, the figures for the IC50 in data set [2] and in data set [5] were 183 nM and 0.5 nM, respectively. The maximum response (Emax) at human GIP receptor was 98%. Moreover, the solubility at 24 h in data set [3] (setting [6]) was found to be 7300 µg/mL (≈ 1620 µM); in data set [3] (setting [7]), 7200 µg/mL (≈ 1600 µM).
